Assay [1] has as its target T1, butyrylcholinesterase (BuChE) from horse serum (Equus caballus, UniProt P81908).
T1 construct: butyrylcholinesterase (BuChE) from horse serum; from tissue; host or cells: horse serum
The assay is described as follows: biochemical. Particulars: for IC50: Ellman's method, 96-well plate, enzyme with compound incubated 20 min at 37 °C, phosphate buffer pH 8.0, three measurements; for Selectivity BuChE: ratio of the IC50 values (AChE/BuChE), definition not given. As for the experimental part: (§1) To determine the inhibitory properties of the tested compounds against acetylcholinesterase and butyrylcholinesterase, Ellman’s method was used. […] For each system, measurements were carried out three times. Dose–response curve functions were fitted to the obtained results.
(§2) The following reagents were used to evaluate the inhibiting activity: acetylcholinesterase (AChE) from electrophorus electricus (Sigma-Aldrich, Saint Louis, MO, USA), butyrylcholinesterase (BuChE) from horse serum, acetylthiocholine iodide (Sigma-Aldrich, Saint Louis, MO, USA), butyrylthiocholine iodide (Sigma-Aldrich, Saint Louis, MO, USA), 5,5′-Dithiobis-(2-nitrobenzoic acid) (DTNB, Sigma-Aldrich, Saint Louis, MO, USA). The enzymes were prepared by dissolving in phosphate buffer, pH = 8.0) with the final concentration 2 U/mL for AChE and 4 U/mL for BuChE. The stock solutions of acetylthiocholine iodide (10^−3 mol/dm^3), butyrylthiocholine iodide (10^−3 mol/dm^3) and DTNB (10^−3 mol/dm^3) were prepared in phosphate buffer. The inhibitory activity of derivatives was evaluated by Ellman’s colorimetric method in a 96-well plate. First, the enzyme solution with the tested compound was incubated for 20 min at 37 °C. Next, acetylthiocholine iodide or butyrylthiocholine iodide and DTNB were added.
Background: Ellman's reagent forms a yellow product with free thiols.

Assay [2] has as its target T2, acetylcholinesterase (AChE) from electrophorus electricus (Electrophorus electricus, UniProt O42275).
T2 construct: purchased Sigma-Aldrich
The assay is described as follows: biochemical. Type of assay: biochemical. The note with it: for IC50: Ellman's method, 96-well plate, enzyme with compound incubated 20 min at 37 °C, phosphate buffer pH 8.0, three measurements; for Selectivity AChE: ratio of the IC50 values (BuChE/AChE), definition not given. On the procedure: as §1, §2

T2 sequence (O42275 24-633): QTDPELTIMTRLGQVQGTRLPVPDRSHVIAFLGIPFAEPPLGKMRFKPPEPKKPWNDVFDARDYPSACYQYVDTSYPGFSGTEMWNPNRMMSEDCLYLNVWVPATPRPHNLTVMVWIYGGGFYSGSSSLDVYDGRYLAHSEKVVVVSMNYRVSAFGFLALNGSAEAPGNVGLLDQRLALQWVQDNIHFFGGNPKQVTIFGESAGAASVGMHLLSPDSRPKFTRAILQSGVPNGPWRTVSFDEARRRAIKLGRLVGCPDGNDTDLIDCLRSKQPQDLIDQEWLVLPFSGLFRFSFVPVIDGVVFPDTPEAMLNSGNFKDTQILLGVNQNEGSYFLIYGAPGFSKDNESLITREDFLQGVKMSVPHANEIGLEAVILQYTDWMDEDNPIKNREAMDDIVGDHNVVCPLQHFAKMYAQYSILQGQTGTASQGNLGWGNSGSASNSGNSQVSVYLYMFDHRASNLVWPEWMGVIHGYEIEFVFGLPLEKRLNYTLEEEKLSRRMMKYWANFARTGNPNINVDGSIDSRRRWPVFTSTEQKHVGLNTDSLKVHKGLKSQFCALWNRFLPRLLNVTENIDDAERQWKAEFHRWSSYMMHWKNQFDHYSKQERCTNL
T1 sequence (P81908 whole entry): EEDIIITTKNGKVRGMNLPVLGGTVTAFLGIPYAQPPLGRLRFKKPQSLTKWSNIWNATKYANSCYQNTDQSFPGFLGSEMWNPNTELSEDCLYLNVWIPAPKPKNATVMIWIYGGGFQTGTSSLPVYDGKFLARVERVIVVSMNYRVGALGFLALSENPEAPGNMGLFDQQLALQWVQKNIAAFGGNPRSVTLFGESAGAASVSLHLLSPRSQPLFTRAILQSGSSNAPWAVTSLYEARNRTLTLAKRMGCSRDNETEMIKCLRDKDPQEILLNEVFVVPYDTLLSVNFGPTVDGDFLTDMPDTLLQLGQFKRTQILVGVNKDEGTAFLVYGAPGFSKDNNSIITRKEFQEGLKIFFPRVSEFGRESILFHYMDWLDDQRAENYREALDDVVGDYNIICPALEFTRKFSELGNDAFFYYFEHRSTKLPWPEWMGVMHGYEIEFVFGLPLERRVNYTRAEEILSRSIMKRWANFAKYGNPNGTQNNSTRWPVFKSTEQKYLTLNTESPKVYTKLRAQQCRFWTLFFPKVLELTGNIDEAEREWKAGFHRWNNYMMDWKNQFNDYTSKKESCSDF

In the case of `O=C1c2ccccc2C(=O)N1CCN1CCN(c2ncccn2)CC1` [IV], in assay [1], the IC50 was 68.9 ± 7.82 µM and the “Selectivity BuChE” value amounted to 0.06. Further, in assay [2], the IC50 is 3.9 ± 0.43 µM and the “Selectivity AChE” value is 17.66. Further, in assay [2] (compared to the derivative with a benzene ring (I)), the “AChE inhibitory activity compared to derivative I” value is recorded as “about four-times less activity”.

As to `O=C1c2ccccc2C(=O)N1CCN1CCN(C(c2ccccc2)c2ccccc2)CC1` [III, N-{2-[4-(4-diphenylomethylo)-1-piperazinyl]ethyl}-1H-isoindole-1,3(2H)-dione], in assay [1], the IC50 was determined as 21.2 ± 4.84 µM and the “Selectivity BuChE” value was 0.09. In addition, in assay [2], the IC50 came out at 1.94 ± 0.43 µM and the “Selectivity AChE” value worked out at 10.95.

With `O=C1c2ccccc2C(=O)N1CCN1CCN(c2ccc(C(F)(F)F)cc2)CC1` [II, N-{2-[4-(4-trifluoromethylphenyl)-1-piperazinyl]ethyl}-1H-isoindole-1,3(2H)-dione], in assay [1], the IC50 was 24.7 ± 3.78 µM and the “Selectivity BuChE” value came out at 0.09. Moreover, in assay [2], the IC50 is 2.31 ± 0.36 µM and the “Selectivity AChE” value is 10.70.

For `O=C1c2ccccc2C(=O)N1CCN1CCN(c2ccccc2)CC1` [Compound I, N-[2-(4-phenyl-1-piperazinyl)ethyl]-1H-isoindole-1,3(2H)-dione], in assay [1], the IC50 worked out at 24.7 ± 1.74 µM and the “Selectivity BuChE” value was 0.05. In assay [2], the half-maximal inhibitory concentration (IC50) stood at 1.12 ± 0.3 µM and the “Selectivity AChE” value was determined as 22.02.

Turning to `O=C1c2ccccc2C(=O)N1CCN1CCOCC1` [Compound V, N-(2-morpholine)ethyl-1H-isoindole-1,3(2H)-dione], the IC50 was greater than 1000 µM in assay [1] and 16.2 ± 2.37 µM in assay [2].

Regarding `O=C1c2ccccc2C(=O)N1CCN1CCc2ccccc2C1` [Compound VI], in assay [1], the IC50 is 52.1 ± 9.73 µM and the “Selectivity BuChE” value stood at 0.02. Also, in assay [2], the IC50 was 1.14 ± 0.17 µM and the “Selectivity AChE” value is 45.71.

In general, IC50 refers to the concentration needed to halve the response being measured.

For the origin of these results see paper PMC11313788, “A Series of Novel 1-H-isoindole-1,3(2H)-dione Derivatives as Acetylcholinesterase and Butyrylcholinesterase Inhibitors: In Silico, Synthesis and In Vitro Studies” (Molecules, 2024).
